Experiments:
recombinant human COMT = biological target: T1, recombinant human COMT (Homo sapiens, UniProt P21964); assay: Human COMT inhibitory potency; assay type: biochemical; details: catechol substrate, [3H]-S-adenosyl-L-methionine, 37° C. 30 minutes
T1 construct: GST (N, cleaved yes); made in house; host or cells: E. coli BL21 (DE3) Codon Plus RP, pGEX-2T vector
T1 sequence (P21964 with tags, fused parts or gaps): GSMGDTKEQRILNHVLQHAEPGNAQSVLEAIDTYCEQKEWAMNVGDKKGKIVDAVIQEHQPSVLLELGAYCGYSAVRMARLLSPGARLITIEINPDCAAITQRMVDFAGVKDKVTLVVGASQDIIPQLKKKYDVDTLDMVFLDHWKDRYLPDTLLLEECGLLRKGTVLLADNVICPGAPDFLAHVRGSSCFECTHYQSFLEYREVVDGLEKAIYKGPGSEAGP

[1] = test system: rat cryopreserved hepatocytes; assay: Rat hepatocyte toxicities (cell viability, ATP activity); assay type: cell-based; details: concentration that shows 50% of the number of viable cells of control, 4 hours at 37° C.
[2] = test system: unilateral 6-hydroxydopamine-lesioned hemi-parkinsonian rats; assay: Potentiation of the efficacy of L-dopa in unilateral 6-hydroxydopamine-lesioned hemi-parkinsonian rats (turning behavior); assay type: in vivo, rat; details: 10 mg/kg oral with 5 mg/kg L-dopa and 30 mg/kg carbidopa; for Duration: duration of contralateral rotation response; for Total counts: summed contralateral rotation counts during drug action
Rat brain COMT = assay: Inhibition of rat brain COMT activity after oral administration; details: 10 mg/kg oral, percentage of Control sample (100%); for Brain (COMT activity %) 1 hour: 1 hour after administration; for Brain (COMT activity %) 5 hours: 5 hours after administration
Rat liver COMT = assay: Inhibition of rat liver COMT activity after oral administration; details: 10 mg/kg oral, percentage of Control sample (100%); for Liver (COMT activity %) 1 hour: 1 hour after administration; for Liver (COMT activity %) 5 hours: 5 hours after administration

Structure (SMILES)	IC50 (recombinant human COMT) [nM]	EC50 [1] [nM]	also measured
CCOC(=O)c1cc(O)c(O)c([N+](=O)[O-])c1C(=O)c1ccccc1 [Compound 1-1, Ethyl 2-benzoyl-4,5-dihydroxy-3-nitrobenzoate]	7.8	262000	Duration [2]: 522.5 min; Total counts [2]: 3188.3; Brain (COMT activity %) 1 hour (Rat brain COMT): 8.9%; Brain (COMT activity %) 5 hours (Rat brain COMT): 56.2%; Liver (COMT activity %) 1 hour (Rat liver COMT): 0.6%; Liver (COMT activity %) 5 hours (Rat liver COMT): 9.0%
COC(=O)c1cc(O)c(O)c([N+](=O)[O-])c1C(=O)c1ccccc1 [Compound 1-2]	8.9	> 300000	Duration [2]: 452.9 min; Total counts [2]: 3569.0
CC(=O)c1ccc(C(=O)c2c(C(=O)OC(C)C)cc(O)c(O)c2[N+](=O)[O-])cc1 [Compound 1-7]	4	–	–
COC(=O)c1ccc(C(=O)c2c(C(=O)OC(C)C)cc(O)c(O)c2[N+](=O)[O-])cc1 [Compound 1-8]	8.3	–	–
CC(C)OC(=O)c1cc(O)c(O)c([N+](=O)[O-])c1C(=O)c1ccccc1C#N [Compound 1-9]	7	–	–
CCOC(=O)c1cc(O)c(O)c([N+](=O)[O-])c1C(=O)c1cccs1 [Compound 1-13]	8.4	> 300000	Duration [2]: 461.4 min; Total counts [2]: 3395.7; Brain (COMT activity %) 1 hour (Rat brain COMT): 14.8%; Brain (COMT activity %) 5 hours (Rat brain COMT): 61.0%; Liver (COMT activity %) 1 hour (Rat liver COMT): 6.6%; Liver (COMT activity %) 5 hours (Rat liver COMT): 15.3%
CCOC(=O)c1cc(O)c(O)c([N+](=O)[O-])c1C(=O)c1ccno1 [Compound 1-15]	7.1	–	–
CCOC(=O)c1cc(O)c(O)c([N+](=O)[O-])c1C(=O)c1nccs1 [Compound 1-18]	4.7	–	–
COC(=O)c1cc(O)c(O)c([N+](=O)[O-])c1C(C)=O [Compound 1-20]	9.5	> 300000	–
CCOC(=O)c1cc(O)c(O)c([N+](=O)[O-])c1C(=O)C(F)(F)F [Compound 1-23]	8.1	–	–
Cc1ccc(C(=O)c2c(C#N)cc(O)c(O)c2[N+](=O)[O-])cc1 [Compound 1-27]	9.7	> 300000	–
N#Cc1cc(O)c(O)c([N+](=O)[O-])c1C(=O)c1ccccc1F [Compound 1-29, 2-(2-fluorobenzoyl)-4,5-dihydroxy-3-nitrobenzonitrile]	6.8	–	–
N#Cc1cc(O)c(O)c([N+](=O)[O-])c1C(=O)C1CCCCC1 [Compound 1-34]	8.1	> 300000	Brain (COMT activity %) 1 hour (Rat brain COMT): 62.2%; Brain (COMT activity %) 5 hours (Rat brain COMT): 78.7%; Liver (COMT activity %) 1 hour (Rat liver COMT): 0.0%; Liver (COMT activity %) 5 hours (Rat liver COMT): 1.0%
N#Cc1cc(O)c(O)c([N+](=O)[O-])c1C(=O)c1ccno1 [Compound 1-37]	8.6	–	–
Cc1cc(C(=O)c2c(C#N)cc(O)c(O)c2[N+](=O)[O-])no1 [Compound 1-38]	8.6	> 300000	–
N#Cc1cc(O)c(O)c([N+](=O)[O-])c1C(=O)N1CCCCC1 [Compound 1-43]	–	> 300000	–
Cc1ccc(C(=O)c2cc(O)c(O)c([N+](=O)[O-])c2)cc1 [Tolcapone, 3,4-dihydroxy-4′-methyl-5-nitro-benzophenone, reference compound]	–	–	Duration [2]: 430.0 min; Total counts [2]: 2578.7; Liver (COMT activity %) 1 hour (Rat liver COMT): 2.5%; Liver (COMT activity %) 5 hours (Rat liver COMT): 30.0%
O=C(c1ccccc1)c1ccc(O)c(O)c1[N+](=O)[O-] [compound 1, (3,4-dihydroxy-2-nitrophenyl)phenymethanone, reference compound]	40.4	–	–
O=C(c1ccccc1)c1cc(O)c(O)c([N+](=O)[O-])c1C(=O)c1ccccc1 [compound 2, (6-benzoyl-3,4-dihydroxy-2-nitrophenyl)phenylmethanone, reference compound]	54	–	–
CCOC(=O)Oc1cc(C(=O)c2ccccc2)c(C(=O)c2ccccc2)c([N+](=O)[O-])c1OC(=O)OCC [compound 3, carbonic acid 4,5-dibenzoyl-2-ethoxycarbonyloxy-3-nitro-phenyl ester ethy ester, reference compound]	1180	–	–
